Experimental findings from US7622481B2, “Antibacterial compounds” (priority 2003, dated 2009) are described below.

Structures can show the parent of a compound that is named as a salt.

A short description of the first assay: MIC of test compounds against various organisms. The format is cell-based.
Conditions: not given
As to the method:
The MIC (μg/ml) of test compounds against various organisms was determined including:
S. epidermidis CL7, S. aureus WCUH29, S. pneumoniae 1629, S. pyogenes CN10, H. influenzae ATCC 49247, E. faecalis 2, M. catarrhalis Ravasio, E. coli 7623.
By MIC is commonly meant the lowest concentration found to suppress growth. Consider `COc1ccc2nccc(NC(=O)[C@@H]3CC[C@@H](NCc4ccc5c(n4)NC(=O)CO5)[C@@H](F)C3)c2n1` [Example 31, (1R,3S,4R)-3-Fluoro-4-[(3-oxo-3,4-dihydro-2H-pyrido[3,2-b][1,4]oxazin-6-ylmethyl)-amino]-cyclohexanecarboxylic acid (6-methoxy-[1,5]naphthyridin-4-yl)-amide dihydrochloride], for which the MIC was at most 2 µg/mL.

Turning to `COc1ccc2nccc(NC(=O)[C@@H]3CC[C@@H](NCc4nc5c(cc4F)SCC(=O)N5)[C@@H](F)C3)c2n1` [Example 32, (1R,3S,4R)-3-Fluoro-4[(7-fluoro-3-oxo-3,4-dihydro-2H-pyrido[3,2-b][1,4]thiazin-6-ylmethyl)-amino]-cyclohexanecarboxylic acid (6-methoxy-[1,5]naphthyridin-4-yl)-amide dihydrochloride], the MIC was at most 2 µg/mL.

For the compound `N#Cc1ccc2cccc(NC(=O)[C@@H]3CC[C@@H](NCc4cc5c(cn4)OCCO5)[C@@H](O)C3)c2n1` [Example 37, (1R,3S,4R)-4-[(2,3-Dihydro-[1,4]dioxino[2,3-c]pyridin-7-ylmethyl)-amino]-3-hydroxy-cyclohexanecarboxylic acid (2-cyano-quinolin-8-yl)-amide hydrochloride], the MIC was at most 2 µg/mL.

Still in this assay, the particulars now being: versus all these organisms (panel of 8 strains); read-out: MIC.
In the case of `N#Cc1ccc2cccc(NC(=O)[C@H]3CC[C@H](NCc4ccc5c(n4)NC(=O)CS5)[C@H](O)C3)c2n1` [Example 12, (1 S,3R,4S)-3-Hydroxy-4-[(3-oxo-3,4-dihydro-2H-pyrido[3,2-b][1,4]thiazin-6-ylmethyl)-amino]-cyclohexanecarboxylic acid (2-cyano-quinolin-8-yl)-amide hydrochloride], the MIC was at most 2 µg/mL.

For the compound `N#Cc1ccc2cccc(NC(=O)[C@H]3CC[C@H](NCc4ccc5c(n4)NC(=O)CO5)[C@H](O)C3)c2n1` [Example 13, (1S,3R,4S)-3-Hydroxy-4-[(3-oxo-3,4-dihydro-2H-pyrido[3,2-b][1,4]oxazin-6-ylmethyl)-amino]-cyclohexanecarboxylic acid (2-cyano-quinolin-8-yl)-amide hydrochloride], the MIC was at most 2 µg/mL.

Take `N#Cc1ccc2cccc(NC(=O)[C@@H]3CC[C@@H](NCc4ccc5c(n4)NC(=O)CS5)[C@H](O)C3)c2n1` [Example 14, (1R,3R,4R)-3-Hydroxy-4-[(3-oxo-3,4-dihydro-2H-pyrido[3,2-b][1,4]thiazin-6-ylmethyl)-amino]-cyclohexanecarboxylic acid (2-cyano-quinolin-8-yl)-amide hydrochloride]: the MIC is at most 2 µg/mL.

Regarding `N#Cc1ccc2cccc(NC(=O)[C@@H]3CC[C@@H](NCc4ccc5c(n4)NC(=O)CS5)[C@@H](O)C3)c2n1` [Example 16, (1R,3S,4R)-3-Hydroxy-4-[(3-oxo-3,4-dihydro-2H-pyrido[3,2-b][1,4]thiazin-6-ylmethyl)-amino]-cyclohexanecarboxylic acid (2-cyano-quinolin-8-yl)-amide hydrochloride], the MIC is at most 2 µg/mL.

Take `COc1ccc2cccc(NC(=O)[C@]3(O)CC[C@@H](NCc4ccc5c(n4)NC(=O)CO5)CC3)c2n1` [Example 17, 1-Hydroxy-t-4-[(3-oxo-3,4-dihydro-2H-pyrido[3,2-b][1,4]oxazin-6 ylmethyl)-amino]-r-cyclohexanecarboxylic acid (2-methoxy-quinolin-8-yl)-amide]: the MIC is at most 2 µg/mL.

On to `Cc1ccc2cccc(NC(=O)[C@]3(O)CC[C@@H](NCc4ccc5c(n4)NC(=O)CO5)CC3)c2n1` [Example 18, 1-Hydroxy-t-4-[(3-oxo-3,4-dihydro-2H-pyrido[3,2-b][1,4]oxazin-6-ylmethyl)-amino]-r-cyclohexanecarboxylic acid (2-methyl-quinolin-8-yl)-amide dihydrochloride], for which the MIC was at most 2 µg/mL.

Consider `Cc1ccc2cccc(NC(=O)[C@]3(O)CC[C@@H](NCc4ccc5c(n4)NC(=O)CS5)CC3)c2n1` [Example 19, 1-Hydroxy-t-4-[(3-oxo-3,4-dihydro-2H-pyrido[3,2-b][1,4]thiazin-6-ylmethyl)-amino]-r-cyclohexanecarboxylic acid (2-methyl-quinolin-8-yl)-amide dihydrochloride], for which the MIC was at most 2 µg/mL.

Consider `COc1ccc2cccc(NC(=O)[C@@H]3CC[C@@H](NCc4ccc5c(n4)NC(=O)CS5)[C@H](O)C3)c2n1` [Example 20, (1R,3R,4R)-3-Hydroxy-4-[(3-oxo-3,4-dihydro-2H-pyrido[3,2-b)[1,4]thiazin-6-ylmethyl)-amino]-cyclohexanecarboxylic acid (2-methoxy-quinolin-8-yl)-amide dihydrochloride], for which the MIC is at most 2 µg/mL.

`COc1ccc2cccc(CC[C@]3(O)CC[C@@H](NCc4cnc5c(c4)NC(=O)CS5)CC3)c2n1` [Example 21, 7-({r-4-Hydroxy-4-[2-(2-methoxy-quinolin-8-yl)-ethyl]-c-cyclohexylamino}-methyl)-1H-pyrido[2,3-b][1,4]thiazin-2-one]: the MIC was at most 2 µg/mL.

With `Cc1ccc2cccc(NC(=O)[C@]3(O)CC[C@@H](NCc4cc5c(cn4)OCC(=O)N5)CC3)c2n1` [Example 22, 1-Hydroxy-t-4-[(2-oxo-2,3-dihydro-1H-pyrido[3,4-b][1,4]oxazin-7-ylmethyl)-amino]-r-cyclohexanecarboxylic acid (2-methyl-quinolin-8-yl)-amide dihydrochloride], the MIC was at most 2 µg/mL.

For `COc1ccc2cccc(NC(=O)[C@]3(O)CC[C@@H](NCc4nc5c(cc4F)SCC(=O)N5)CC3)c2n1` [Example 23, t-4-[(7-Fluoro-3-oxo-3,4-dihydro-2H-pyrido[3,2-b][1,4]thiazin-6-ylmethyl)-amino]-1-hydroxy-r-cyclohexanecarboxylic acid (2-methoxy-quinolin-8-yl)-amide dihydrochloride], the MIC was at most 8 µg/mL.

For `Cc1cnc2cccc(NC(=O)[C@]3(O)CC[C@@H](NCc4ccc5c(n4)NC(=O)CS5)CC3)c2n1` [Example 25, 1-Hydroxy-t-4-[(3-oxo-3,4-dihydro-2H-pyrido[3,2-b][1,4]thiazin-6-ylmethyl)-amino]-r-cyclohexanecarboxylic acid (3-methyl-quinoxalin-5-yl)-amide dihydrochloride], the MIC was at most 2 µg/mL.

With `Cn1ccc2cccc(NC(=O)[C@]3(O)CC[C@@H](NCc4ccc5c(n4)NC(=O)CS5)CC3)c2c1=O` [Example 26, 1-Hydroxy-t-4-[(3-oxo-3,4-dihydro-2H-pyrido[3,2-b][1,4]thiazin-6-ylmethyl)-amino]-r-cyclohexanecarboxylic acid (2-methyl-1-oxo-1,2-dihydro-isoquinolin-8-yl)-amide hydrochloride], the MIC is at most 2 µg/mL.

Turning to `COc1nccc2cccc(NC(=O)[C@]3(O)CC[C@@H](NCc4ccc5c(n4)NC(=O)CS5)CC3)c12` [Example 27, 1-Hydroxy-t-4-[(3-oxo-3,4-dihydro-2H-pyrido[3,2-b][1,4]thiazin-6-ylmethyl)-amino]-r-cyclohexanecarboxylic acid (1-methoxy-isoquinolin-8-yl)-amide hydrochloride], the MIC was at most 8 µg/mL.

Turning to `COc1cccc2nccc(NC(=O)[C@]3(O)CC[C@@H](NCc4ccc5c(n4)NC(=O)CS5)CC3)c12` [Example 28, 1-Hydroxy-t-4-[(3-oxo-3,4-dihydro-2H-pyrido[3,2-b][1,4]thiazin-6-ylmethyl)-amino]-r-cyclohexanecarboxylic acid (5-methoxy-quinolin-4-yl)-amide dihydrochloride], the MIC was at most 8 µg/mL.

With `COc1cnc2cccc(NC(=O)[C@]3(O)CC[C@@H](NCc4ccc5c(n4)NC(=O)CS5)CC3)c2n1` [Example 34, 1-Hydroxy-t-4-[(3-oxo-3,4-dihydro-2Hpyrido[3,2-b][1,4]thiazin-6-ylmethyl)-amino]-r-cyclohexanecarboxylic acid (3-methoxy-quinoxalin-5-yl)-amide hydrochloride], the MIC was at most 2 µg/mL.

For `Cc1ccc2cccc(NC(=O)[C@]3(O)CC[C@@H](NCc4cc5c(cn4)OCCO5)CC3)c2n1` [Example 35, t-4-[(2,3-Dihydro-[1,4]dioxino[2,3-c]pyridin-7-ylmethyl)-amino]-1-hydroxy-c-cyclohexanecarboxylic acid (2-methyl-quinolin-8-yl)-amide dihydrochloride], the MIC is at most 8 µg/mL.

Turning to `Cc1ccc2cccc(NC(=O)[C@H]3CC[C@H](NCc4cc5c(cn4)OCCO5)CC3)c2n1` [Example 36, t-4-[(2,3-Dihydro-[1,4]dioxino[2,3-c]pyridin-7-ylmethyl)-amino]-cyclohexanecarboxylic acid (2-methyl-quinolin-8-yl)-amide dihydrochloride], the MIC was at most 8 µg/mL.

Still in this assay, the particulars now being: versus at least one of these organisms (panel of 8 strains); read-out: MIC.
In the case of `Cc1cnc2c(NC(=O)[C@]3(O)CC[C@@H](NCc4ccc5c(n4)NC(=O)CS5)CC3)cccc2n1` [Example 30, 1-Hydroxy-t-4-[(3-oxo-3,4-dihydro-2H-pyrido[3,2-b][1,4]thiazin-6-ylmethyl)-amino]-r-cyclohexanecarboxylic acid (2-methyl-quinoxalin-5-yl)-amide dihydrochloride], the MIC was at most 16 µg/mL.

The same assay, now with this note: versus some of these organisms (panel of 8 strains); read-out: MIC.
For the compound `COc1ccc2cccc(NC(=O)[C@]3(O)CC[C@@H](NCc4nc5c(cc4Cl)SCC(=O)N5)CC3)c2n1` [Example 24, t-4-[(7-Chloro-3-oxo-3,4-dihydro-2H-pyrido[3,2-b][1,4]thiazin-6-ylmethyl)-amino]-1-hydroxy-r-cyclohexanecarboxylic acid (2-methoxy-quinolin-8-yl)-amide dihydrochloride], the MIC was at most 2 µg/mL.

With `O=C1COc2ccc(CN[C@H]3CC[C@](O)(C(=O)Nc4ccnc5ccncc45)CC3)nc2N1` [Example 29, 1-Hydroxy-t-4-[(3-oxo-3,4-dihydro-2H-pyrido[3,2-b][1,4]oxazin-6-ylmethyl)-amino]-r-cyclohexanecarboxylic acid [1,6]naphthyridin-4-ylamide], the MIC was at most 2 µg/mL.

`CC1CNc2cccc(NC(=O)[C@]3(O)CC[C@@H](NCc4ccc5c(n4)NC(=O)CO5)CC3)c2N1` (stereo partly shown) [Example 33, 1-Hydroxy-t-4-[(3-oxo-3,4-dihydro-2H-pyrido[3,2-b][1,4]oxazin-6-ylmethyl)-amino]-c-cyclohexanecarboxylic acid (3-methyl-1,2,3,4-tetrahydro-quinoxalin-5-yl)-amide dihydrochloride]: the MIC is at most 2 µg/mL.
